One experiment deals with T1, CAPRIN1 and APP (Homo sapiens, UniProt P05067+Q14444).
T1 construct: endogenous in cells; host or cells: AG27606-Ns, sAD2.3-Ns (iPSC-derived neurons) and their lysates
Description: Streptavidin pull-down with biotinylated 0152 in AG27606-N lysates. In kind it is binding.

For another experiment, the system named is LN229 and HCT116 cells. Also on record: method as in PMID 34644148. To be noted: cited from earlier work.

Consider 1 compound from publication PMC13534789, “Molecular Glue Degraders Enhance CAPRIN1‐Dependent Lysosomal Degradation of APP and Reduce Amyloid β in Alzheimer's Disease” (Advanced Science, 2026).

Turning to `N#Cc1ccc2nc(NC(=O)Nc3cccc(Cl)c3)sc2c1` [HB007, reference compound], the “Competition of the 0152-biotin pull-down by excess free compound” value on CAPRIN1 and APP is “not by the inactive analog HB007”. For the same compound, the Cancer cell growth entry in the experiment on LN229 and HCT116 cells is reported as “inhibits cancer cell growth”.
